Laboratory results reported in patent US8455194B2, “Diagnostic methods” (Isis Innovation Limited, priority 2008, dated 2013).
Where two headings read alike, the source gives them in different places.

What was measured:
[1] = test system: SLCO1B1 rs4149056 SNP; details: summary estimate with interval in brackets; cited from earlier work
[2] = cited from earlier work
[3] = Asian subjects compared with a White (Caucasian) control group; cited from earlier work
[4] = Heart Protection Study (HPS): myopathy in participants allocated 40 mg simvastatin daily; assay type: in vivo, human
Protocol: (§1) Using DNA extracted from 19,856 (97%) participants, the rs4149056 and rs2306283 SNPs in SLCO1B1 were successfully genotyped in 16,664 participants classified as Caucasian. Effects of these genotypes on myopathy risk and on LDL-cholesterol reduction were then assessed.

[5] = test system: LDL-cholesterol; assay: Heart Protection Study (HPS): LDL-cholesterol reduction on 40 mg simvastatin daily; assay type: in vivo, human; details: 4-6 weeks of 40 mg simvastatin daily
Protocol: as §1
Among 16,664 genotyped participants in HPS,^22 the rs4149056 and rs2306283 variants were not associated with significant differences in pre-treatment LDL-cholesterol levels. […] These 17,000 genotyped participants without myopathy also provide an alternative control population for the SEARCH cases, yielding an odds ratio of 4.7 (3.5-6.4) per rs4149056 C allele and a stronger p-value of 3×10^−28.

[6] = for Cumulative percentage with myopathy / Estimated cumulative myopathy risk: 80 mg simvastatin daily; for Estimated cumulative myopathy risk: life-table analysis
Text: After randomisation, follow-up of participants was scheduled to occur at 2, 4, 8 and 12 months, and then at 6-monthly intervals. Information was sought about any possible myocardial infarction, hospitalisation for angina, stroke, vascular procedure, pulmonary embolus, cancer or other serious adverse experience. In addition, any new unexplained muscle pain or weakness was explicitly sought and recorded. A blood sample was taken at each follow-up visit for central laboratory assay of CK and ALT.
Standard 1d.f. (trend) and 2 d.f. […] Haploview v4.0 release candidate 2^25 was used to estimate linkage disequilibrium and plot association results for genotyped SNPs. Haplotype frequencies and associated risks were estimated using tools in the haplo.stats (v1.3.1) package^26 in R (v2.6.1)^27. Physical positions refer to NCBI build-36 of the human genome, and alleles are expressed in the forward strand of the reference human genome (NCBI build-36). Ensembl version 46 and NCBI dbSNP build 127 and published reports^11,28,29 were used to classify SNPs as synonymous or non-synonymous and to identify their location within introns or exons.

[7] = among 10,269 participants allocated 40 mg simvastatin daily, 5 years average follow-up
[8] = among 6031 participants allocated 80 mg simvastatin daily, average follow-up about 6 years
[9] = among 6033 participants allocated 20 mg simvastatin daily

In the case of `CC(C)n1c(/C=C/C(O)CC(O)CC(=O)O)c(-c2ccc(F)cc2)c2ccccc21` (stereo not drawn) [Fluvastatin (acid), Fluvastatin], the “% higher AUC per C allele among studies of this statin” value [1] is given as 10 (−9, 34) %.

In the case of `O=C(O)C[C@H](O)C[C@H](O)/C=C/c1c(C2CC2)nc2ccccc2c1-c1ccc(F)cc1` [Pitavastatin (acid), Pitavastatin], the “% higher AUC per C allele among studies of this statin” value [1] is given as 37 (10, 71) %.

For `CC[C@H](C)C(=O)O[C@H]1C[C@H](O)C=C2C=C[C@H](C)[C@H](CC[C@@H](O)C[C@@H](O)CC(=O)O)[C@H]21` [Pravastatin (acid), Pravastatin], the “% higher AUC per C allele among studies of this statin” value [1] is listed as 35 (17, 56) %.

For `CC(C)c1nc(N(C)S(C)(=O)=O)nc(-c2ccc(F)cc2)c1/C=C/[C@@H](O)C[C@@H](O)CC(=O)O` [Rosuvastatin (acid), Rosuvastatin], the “Increase in AUC of rosuvastatin” value ([2]; rosuvastatin combined with cyclosporine) is given as 7-11 times, the “Elevation in median exposure of rosuvastatin” value [3] is given as ~2 fold and the “% higher AUC per C allele among studies of this statin” value [1] is given as 31 (15, 42) %.

For `CCC(C)(C)C(=O)O[C@H]1C[C@@H](C)C=C2C=C[C@H](C)[C@H](CC[C@@H](O)C[C@@H](O)CC(=O)O)[C@H]21` [Simvastatin acid], the “% higher AUC per C allele among studies of this statin” value [1] is given as 61 (30, 100) %.

In the case of `Cc1ccc(C)c(OCCCC(C)(C)C(=O)O)c1` [gemfibrozil], the “Increase in area under the statin elimination curve (AUC)” value ([2]; gemfibrozil given concomitantly with several statins) is given as 2-4 fold.

In the case of `CCC(C)(C)C(=O)O[C@H]1C[C@@H](C)C=C2C=C[C@H](C)[C@H](CC[C@@H]3C[C@@H](O)CC(=O)O3)[C@H]21` [simvastatin], the “Number of definite myopathy cases” value [4, 7] is reported as 10, the “Number of incipient myopathy cases” value [4, 7] is reported as 14 and the “Number of myopathy cases (definite plus incipient)” value [4, 7] is reported as 24. The “Number of definite or incipient myopathy cases while taking statin” value ([4]; participants taking their allocated 40 mg simvastatin daily) was 23, the “Average reduction in LDL-cholesterol” value ([5]; 16,664 genotyped participants, SE 0.12) was 40.57% and the “Larger LDL-cholesterol reduction per rs2306283 G allele” value ([5]; both variants considered together, SE 0.18) was 0.62%. The “Smaller LDL-cholesterol reduction per rs4149056 C allele” value ([5]; both variants considered together, SE 0.25) was 1.28%, the “Cumulative percentage with myopathy” value ([6]; all genotypes, Year 1) was 0.91% and the “Cumulative percentage with myopathy” value ([6]; all genotypes, Year 5) was 1.56%. The “Estimated cumulative myopathy risk” value ([6]; rs4149056 CC homozygotes) was 18%, the “Estimated cumulative myopathy risk” value ([6]; rs4149056 CT genotype) was “about 3%” and the “Estimated cumulative myopathy risk” value ([6]; rs4149056 TT homozygotes) was 0.6%. The “Cumulative percentage with myopathy” value ([6]; rs4149056 genotype CC, Year 1) was 15.25%, the “Cumulative percentage with myopathy” value ([6]; rs4149056 genotype CC, Year 5) was 18.55% and the “Cumulative percentage with myopathy” value ([6]; rs4149056 genotype CT, Year 1) was 1.38%. For the same compound, the “Cumulative percentage with myopathy” value ([6]; rs4149056 genotype CT, Year 5) was 2.83%, the “Cumulative percentage with myopathy” value ([6]; rs4149056 genotype TT, Year 1) was 0.34% and the “Cumulative percentage with myopathy” value ([6]; rs4149056 genotype TT, Year 5) was 0.63%. The “Number of definite myopathy cases” value [6, 8] was 49, the “Number of incipient myopathy cases” value [6, 8] was 49 and the “Number of definite myopathy cases” value [6, 9] was 2. The “Number of incipient myopathy cases” value [6, 9] was 6.
